Experimental data from publication PMC4820820, “CETSA screening identifies known and novel thymidylate synthase inhibitors and slow intracellular activation of 5-fluorouracil” (Nature Communications, 2016).
Where “and” joins values, the source holds several entries; their conditions need not be identical. Equal values may be shown once. Read-outs that look alike come from different tables or passages of the source. One block for each compound: values may come before it.

Legend:
TS = TS (Homo sapiens, UniProt P04818); assay: Thermal shift in vitro assay on recombinant protein; format: binding; set-up: His6 tag with TEV site (vector-encoded by pNIC28-Bsa4); made in house; host or cells: Rosetta BL21-DE3 Escherichia coli; conditions: nucleoside without enzyme treatment
TS, sequence (P04818 whole entry): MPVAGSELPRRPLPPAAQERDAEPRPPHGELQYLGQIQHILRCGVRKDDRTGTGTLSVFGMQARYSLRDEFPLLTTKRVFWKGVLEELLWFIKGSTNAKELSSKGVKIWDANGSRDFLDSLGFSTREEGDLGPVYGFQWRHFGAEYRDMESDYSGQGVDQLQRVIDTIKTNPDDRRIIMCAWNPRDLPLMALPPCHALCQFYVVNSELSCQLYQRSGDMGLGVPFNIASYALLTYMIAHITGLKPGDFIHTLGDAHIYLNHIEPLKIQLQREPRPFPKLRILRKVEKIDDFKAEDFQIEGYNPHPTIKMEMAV
Experimental: The assay was performed on the iCycler iQ Real Time PCR Detection System (Bio-Rad), using the 96-well thin-wall PCR plate (Bio-Rad). The experiment was conducted in a buffer containing 20 mM HEPES at pH 7.5 and 150 mM NaCl. A total volume of 25 μl solution containing 0.2 mg ml^−1 protein, compounds and × 5 Sypro Orange dye (Invitrogen) diluted from 5,000 × stock was dispensed into the 96-well plate. The same amount of DMSO was added in the control wells. The plates were sealed with Microseal B adhesive sealer (Bio-Rad) and heated in iCycler from 25 to 80 °C (56 heating cycles in 28 min). Fluorescent filter used for Sypro Orange measurements was λexcitation=492 nm and λemission=610 nm. The calculation of the midpoint of the curves (Tm) was performed using the software package XLfit from IDBS within microsoft excel.
Decitabine at a concentration of 1 mM was incubated with 1 mg ml^−1 of recombinant DCK and 2.5 mM ATP in a buffer of 50 mM Tris at pH 7.5, 150 mM NaCl and 0.5 mM MgCl2 at room temperature for 60 min to generate the corresponding monophosphates. To probe for nucleotide deamination the samples were further treated with 1 mg ml^−1 of recombinant DCTD in the presence of 1 mM ATP and 10 μM ZnCl2 for 20 min at room temperature. After incubation, the samples were heated at 95 °C for 10 min and centrifuged for 10 min at the highest speed at 4 °C using a benchtop centrifuge. The supernatant was tested without dilution in thermal shift in vitro assays and the TS enzyme inhibition assay. The supernatants from samples without nucleoside were used as the treatment controls.

[1] = target: T1, human thymidylate synthase (TS) (Homo sapiens, UniProt P04818); assay: ITDRF CETSA at 50 °C, AlphaScreen detection, live K562 cells; format: cell-based; conditions: for EC50: 2 h preincubation
T1 construct: screening in live, non-engineered cells expressing thymidylate synthase; endogenous in cells; host or cells: K562 (human myelogenous leukemia) cells
T1 sequence (P04818 2-313 limits assumed): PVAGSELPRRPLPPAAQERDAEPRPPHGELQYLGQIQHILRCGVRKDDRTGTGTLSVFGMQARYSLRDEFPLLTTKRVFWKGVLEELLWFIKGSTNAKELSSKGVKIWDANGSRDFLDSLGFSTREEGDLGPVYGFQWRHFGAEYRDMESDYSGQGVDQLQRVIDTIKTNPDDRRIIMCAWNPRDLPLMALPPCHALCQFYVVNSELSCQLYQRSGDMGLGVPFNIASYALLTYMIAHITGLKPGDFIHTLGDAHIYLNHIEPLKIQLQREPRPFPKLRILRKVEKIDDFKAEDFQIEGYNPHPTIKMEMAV
Experimental: For the […] experiments 11-point dose-response curves with three-fold difference in concentration between wells were generated using the Bravo liquid handling system (all serial dilutions were done in 100% DMSO). […] The concentration of DMSO was 0.5% in all samples. […] The assay ready plates were prepared as outlined above for the screen.
(§1) The screen procedure started with the addition of 5 μl of a suspension of K562 cells at a density of 10 million cells per ml to all wells of a 384 well hardshell PCR plate (HSR480, BIORAD) using an electronic multichannel pipette (Biohit). […] For the time-course experiments the incubation times were altered to include also 10 min, 30 min and 6 h. […] After the incubation step the plates were transiently heated at 50 °C for 3 min followed by a controlled cooling to 20 °C for 1 min using a real-time PCR machine (LightCycler480 system, Roche). Plate handling was then as described above for the thermal aggregation experiments. The data were analyzed using microsoft excel and GraphPad Prism 6.
(§2) A calculation of the average and standard error of means for each set of controls also allowed an illustration of how these responses varied over the 32 screening plates. The Z′ factor[38] is commonly used as a measure of how well the assay separates between the controls and this was calculated as described based on the calculated averages and standard deviations of the controls on a per plate basis. For the Tagg shift and the […] experiments the data were analyzed in GraphPad Prism using the Boltzmann sigmoid equation and the saturation binding curve (rectangular hyperbola; binding isotherm) function, respectively. As already discussed[14] these methods make use of equilibrium models for data analysis although the methodology depends on the irreversible aggregation of denatured material. For this reason we refer to the observed responses as apparent and isothermal dose-response fingerprints and are careful with any quantitative interpretations, being well aware of their dependency on experimental conditions. Experiments are on-going to address the quantitative interpretation of CETSA data.

[2] = target: T1, human thymidylate synthase (TS); assay: CETSA primary screen / single-concentration retest, AlphaScreen, live K562 cells; format: cell-based; conditions: for % stabilization in screen at 50 µM: K562, 2 h, read-out: % stabilization in screen
Experimental: Compounds were placed in columns 1–22. […] At the day of the experiment the plates were allowed to thaw for 30 min followed by a brief centrifugation step (1,000 × g for 1 min) prior to removal of the seal. The compounds were then diluted with 20 μl supplemented cell culture medium using a Multidrop Combi reagent dispenser (Thermo Scientific). Finally 5 μl of the diluted compounds were transferred to a 384 well hardshell PCR plate (HSR480, BIORAD) using a Bravo liquid handling platform equipped with a 384-well head (Agilent). […] The final concentration of DMSO in the assay was 0.5% in all samples.
as §1, §2

[3] = target: T1, human thymidylate synthase (TS); assay: CETSA Tagg curves, AlphaScreen detection, live K562 cells; format: cell-based; conditions: 2 h preincubation, 3 min heating, DMSO control 46.7±0.2 °C
Experimental: The data were analyzed using microsoft excel and GraphPad Prism 6.
as §2

[4] = Intracellular compound and metabolite concentrations by LC-MS/MS in K562 cells; format: in vitro ADME, human; conditions: K562 cells incubated with 100 µM 5-FU, first 6 h
Experimental: Intracellular concentrations of compounds were measured as previously described. Briefly, K562 cells were incubated with the compounds for a predefined time at 37 °C in a 5% CO2 atmosphere. After incubation, the cells were centrifuged (300 × g for 5 min) and a medium sample (supernatant) was collected and diluted 1:10 in a 50 nM warfarin solution (internal standard). The cells were washed with phosphate buffered salt solution and lysed with methanol. Methanol was evaporated and the cell samples were reconstituted in 50 nM warfarin. Samples were analyzed with LC–MS/MS with electrospray ionization in negative mode with transitions monitored as listed in Table 2.

[5] = 50 °C, unit taken from curve axis log [cmp] (M), read-out: ITDRF CETSA (hit confirmation)
[6] = 50 μM compound, 2 h preincubation, 50 °C, 0% = DMSO, 100% = 100 nM raltitrexed

stabilization of recombinant TS in thermal shift assay (TS): did not stabilize
SMILES: O=c1ccn([C@H]2C[C@H](O)[C@@H](CO)O2)c(=O)[nH]1 [deoxyuridine]

SMILES: C#Cc1cn([C@H]2C[C@H](O)[C@@H](CO)O2)c(=O)[nH]c1=O [CBK201207, 5-ethynyl-2′-deoxyuridine, reference compound]
EC50 [1, 5]: 1.41e-09 M
% stabilization in screen at 50 µM [2, 6]: 102%

EC50 [1, 5]: 3.18e-10 M
% stabilization in screen at 50 µM [2]: 66%
stabilization of recombinant TS in thermal shift assay (TS): did not stabilize
SMILES: O=c1[nH]c(=O)n([C@H]2C[C@H](O)[C@@H](CO)O2)cc1C(F)(F)F [TFT, 5-trifluoro-2′-deoxythymidine]

EC50 [1, 5]: 2.28e-05 M
% stabilization in screen [2, 6]: 90%
SMILES: CC#Cc1cn([C@H]2C[C@@H](O)[C@@H](CO)O2)c(=O)[nH]c1=O [CBK201182]

EC50 [1, 5]: 1.42e-07 M
% stabilization in screen [2, 6]: 23%
SMILES: COCc1cn(C2CC(O)C(CO)O2)c(=O)[nH]c1=O (centres unmarked) [CBK201230]

apparent Tagg of TS ([3]; 1 μM raltitrexed): above 65 °C
SMILES: Cc1nc2ccc(CN(C)c3ccc(C(=O)N[C@@H](CCC(=O)O)C(=O)O)s3)cc2c(=O)[nH]1 [raltitrexed]

EC50 [1, 5]: 8.38e-06 M
% stabilization in screen at 50 µM [2]: 76%
SMILES: CCc1nc(N)nc(N)c1-c1ccc(Cl)cc1 [CBK041886, Pyrimethamine, reference compound]

EC50 ([1]; 50 °C for 3 min, read-out: […] apparent EC50): 1.9e-05 ± 4e-06 M
% stabilization in screen at 50 µM [2]: 48%
intracellular levels of FdUMP [4]: undetectable
SMILES: O=c1[nH]cc(F)c(=O)[nH]1 [Compound 5-FU, 5-fluorouracil]

apparent Tagg of TS ([3]; 15 μM floxuridine): above 65 °C
concentration giving stabilization of TS (CETSA) ([1]; 10 min of pre-incubation): low nM
EC50 [1, 5]: 6.61e-11 M
EC50 ([1]; ITDRFCETSA EC50 (half-maximal stabilization of TS), 50 °C for 3 min, read-out: […] EC50 (half-maximal stabilization of TS)): 6.5e-11 M and 4.7e-11 M
% stabilization in screen at 50 µM [2, 6]: 64%
stabilization of recombinant TS in thermal shift assay (TS): did not stabilize
SMILES: O=c1[nH]c(=O)n([C@H]2C[C@H](O)[C@@H](CO)O2)cc1F [floxuridine, 5-fluorodeoxyuridine]

EC50 [1, 5]: 3.43e-07 M
% stabilization in screen [2, 6]: 22%
SMILES: Nc1nc(=O)n([C@H]2C[C@@H](O)[C@@H](CO)O2)cc1O [CBK201221]

EC50 [1, 5]: 9.17e-06 M
% stabilization in screen [2, 6]: 66%
SMILES: Cc1cc(C)c(Oc2nc(=O)n([C@H]3C[C@@H](O)[C@@H](CO)O3)cc2F)c(C)c1 [CBK201184]
